This note sets out measurements from patent US12600696B2 (XENIOPRO GMBH, priority 2017, dated 2026).

Holding throughout (format): cell-based
Test [1] deals with HL-60 cells (human acute myeloid leukemia cells). The experiment in a line: alamarBlue proliferation assay with HL-60 cells. To be noted: 120 h, 5 days, relative to DMSO baseline level of 1.0, read-out: AVEw, weighted arithmetic mean of normalized fluorescence intensity values (Activity Range), HL-60 proliferation. The procedure, abridged:
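HL-60 cells (1000/well, RPMI 1640 + 10% FBS) exposed to compound in 0.1% DMSO for 5 days, then alamarBlue fluorescence read (ex 560/em 590 nm). Signals normalized to six DMSO wells per plate (baseline 1.0); outliers removed by Peirce/Chauvenet; weighted mean with combined SD; inhibitor criterion judged at 20 μM reference concentration.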
For orientation: The colour change of resazurin is a common sign of viable cells or microbes.

The test system of test [2] is CAL-27 cells (human tongue squamous cell carcinoma cells). The experiment in a line: alamarBlue proliferation assay with CAL-27 cells. To be noted: Homo sapiens, 120 h; for activity at 40 µM: relative to DMSO basis level 1.0, read-out: weighted arithmetic mean (AVEw) of normalized fluorescence intensity, activity range; for activity at 20 µM: 5 days, relative to DMSO baseline level of 1.0, read-out: AVEw, weighted arithmetic mean of normalized fluorescence intensity values (Activity Range), CAL-27 proliferation. The procedure, abridged:
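CAL-27 cells seeded at 2000 per well, exposed to compound in 0.1% DMSO for 5 days, then alamarBlue fluorescence (ex 560/em 590 nm). Values normalized to DMSO wells (1.0) as weighted means with combined standard deviation; growth inhibition judged at 20 μM reference concentration.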

In test [3] the test system is TT cells (human medullary thyroid carcinoma cells). The experiment in a line: alamarBlue proliferation assay with TT cells. To be noted: Homo sapiens, 120 h, 40 μM, relative to DMSO basis level 1.0, read-out: weighted arithmetic mean (AVEw) of normalized fluorescence intensity, activity range. The method, then:
(§1) The antiproliferative activities of compounds falling under formula I, formula II, formula III, formula IV and formula V were investigated on cells or cell lines originating from a disorder of the myeloid cell compartment, the neuroendocrine system, the cervix, and the mucosal epithelium, as well as from the skin epithelium. To this end, HL-60 cells, TT cells, HeLa cells, CAL-27 cells and human primary epidermal keratinocytes (HPEK) were seeded into 96-well plates suitable for fluorescence assays (CORNING #3598) at following initial cell numbers: 1000 cells per well for HL-60; 9000 cells per well for TT; 2000 cells per well for HeLa, 2000 cells per well for CAL-27, 2000 cells per well for HPEK. The cells were treated with compounds at indicated final concentrations (diluted from the 1000× stock-solutions in DMSO to a final DMSO concentration of 0.1% v/v) or with the empty carrier DMSO at 0.1% v/v as control for 5 days. At day 5 after starting the treatments the cells were subjected to the alamarBlue® Proliferation Assay (Bio-Rad Serotec GmbH, BUF012B) according to the protocol of the manufacturer. The readout was taken with a multi-well plate-reader in the fluorescence mode with applying a filter for excitation at 560 nm (band width 10 nm) and for emission at 590 nm (band width 10 nm). Resveratrol (RES) treatment was included as control for growth inhibition.
(§2) The assays were performed in duplicate or more replicates of independent single experiments each containing a six-fold replicate for every condition. For every individual plate, the measured fluorescence intensity values of the conditions with compound treatment were normalized against the corresponding equally weighted arithmetic mean of the fluorescence intensity values of the six DMSO treated control wells in order to obtain the relative values to a baseline level of 1.0. The statistical calculations were performed in analogy to the luciferase assay as described above. To this end, two independent outlier analyses were performed according to the methods by Peirce and Chauvenet (Ross, Journal of Engineering Technology 2003, 1-12). Outliers confirmed by at least one of the methods were excluded from the calculations but not more than one value out of six per compound within a single experiment. The weighted arithmetic mean AVEw for each compound was calculated from the normalized values over all independent replicates of the single experiments comprising the six replicates each. The corresponding standard deviation for the weighted arithmetic mean was calculated according to the method described by Bronstein et al. (Bronstein, Semendjajew, Musiol, Mühlig, Taschenbuch der Mathematik, 5th edition 2001 (German), publisher: Verlag Harri Deutsch, Frankfurt am Main and Thun) and was combined with the Gauß′ error propagation associated with the performed calculation for the normalization. The resulting standard deviation is herein referred to as “combined standard deviation”.
TT cells were cultivated according to the protocol of the provider in F-12K medium (Fisherscientific, #11580556, or ATCC, #ATCC-30-2004) containing 10% fetal bovine serum (Fisherscientific, #15517589).
(§3) A compound is considered as a growth inhibitor of TT cells, if—at a reference concentration of 40 μM—the weighted arithmetic mean of the normalized fluorescence intensity values after addition of the corresponding combined standard deviation amounts to 0.9 or lower, in particular to 0.8 or lower, 0.7 or lower, 0.6 or lower, 0.4 or lower, and 0.2 or lower, relative to the overall basis level of 1.0. The overall basis level was calculated as the weighted arithmetic mean of all normalized values from the DMSO control measurements in analogy to the calculations performed for the test-compounds. The corresponding combined standard deviation for the DMSO values amounts to less than 1·10^−2.

Test [4] concerns HPEKp cells (human epidermal keratinocyte progenitors, pooled). The test can be described thus: alamarBlue proliferation assay with HPEKp cells. To be noted: 120 h, relative to DMSO basis level 1.0, read-out: weighted arithmetic mean (AVEw) of normalized fluorescence intensity, activity range. The method, then:
as §1, §2
HPEKp cells were cultivated according to the protocol of the provider in CnT-Prime epithelial culture medium (CELLnTEC, #CnT-PR, a fully defined, low calcium formulation, completely free of animal or human-derived components) without addition of further components.
as §3, with “HPEKp” for “TT”, “10” for “40”

Test [5] relates to BHY cells (human oral squamous cell carcinoma cells). The experiment in a line: alamarBlue proliferation assay with BHY cells. To be noted: 72 h, 3 days treatment, single assay (preliminary), relative to DMSO basis level 1.0, read-out: equally weighted arithmetic mean (AVE) of six normalized fluorescence intensity values, activity range (RES: AVEw). The method, then: Compounds were tested on BHY cells using the alamarBlue® proliferation assay in analogy to the above described method with seeding the cells at an initial number of 4000 cells per 96-well and a duration of treatment with compounds for 3 days.
BHY cells were cultivated according to the protocol of the provider (but at 5% instead of 10% CO2) in DMEM medium (Fisherscientific, #11584456) containing 10% fetal bovine serum (Fisherscientific, #15517589).
A compound is considered as a growth inhibitor of BHY cells, if—at a reference concentration of 40 μM—the equally weighted arithmetic mean (AVE) of the six normalized fluorescence intensity values after addition of the corresponding standard deviation amounts to 0.9 or lower, in particular to 0.8 or lower, 0.7 or lower, 0.6 or lower, 0.4 or lower, and 0.2 or lower, relative to the overall basis level of 1.0. The overall basis level was calculated as the weighted arithmetic mean (AVEw) of all normalized values from the DMSO control measurements. The corresponding combined standard deviation for the DMSO values amounts to less than 1·10^−2. The corresponding standard deviations for the tested compounds were calculated including the Gauß′ error propagation associated with the performed calculation for the normalization. The weighted arithmetic mean (AVEw) and the combined standard deviation for RES was calculated in analogy to DMSO. Outlier analyses were performed as described above.

As for `NC(=O)c1ccc(Oc2ccc(C34CC5CC(CC(C5)C3)C4)cc2)cc1` [Compound 161, 4-(4-((3r,5r,7r)-adamantan-1-yl)phenoxy)benzamide], the activity at 20 µM in test [1] lay within 20 to 40%. For the same compound, the activity at 40 µM in test [2] was in the range of 20 to 40%; in test [3], 40 to 60%.
For `CCCCc1ccc(Oc2ccc(C(=O)NO)cc2)cc1` [Compound 167, 4-(4-butylphenoxy)-N-hydroxybenzamide], the activity at 20 µM in test [1] lay within 40 to 60%; in test [2], 60 to 70%. Moreover, the activity at 40 µM in test [2] lay in the range of 0 to 20%; in test [3], 20 to 40%.
As for `CNC(=O)c1ccc(Oc2ccc(C3C[C@@H]4CC[C@H]3C4)cc2)cc1` (stereo partly drawn) [Compound 210, 4-(4-((1S,4R)-bicyclo[2.2.1]heptan-2-yl)phenoxy)-N-methylbenzamide], the results for the activity at 20 µM in test [1] and in test [2] were 20 to 40% and 70 to 80%, respectively. Further, the activity at 40 µM in test [2] lay in the range of 0 to 20%; in test [3], 60 to 70%.
For `CN(C)C(=O)c1ccc(Oc2ccc(C3CC4CCC3CC4)cc2)cc1` (stereo not shown) [Compound 237, 4-(4-((1s,4s)-bicyclo[2.2.2]octan-2-yl)phenoxy)-N,N-dimethylbenzamide], the figures for the activity at 20 µM in test [1] and in test [2] were 20 to 40% and 40 to 60%, respectively. Also, the values for the activity at 40 µM in test [2] and in test [3] were 20 to 40% and 40 to 60%, respectively.
Take `O=C(NO)c1ccc(Oc2ccc(C3CCCCC3)cc2)c(F)c1` [Compound 540, 4-(4-cyclohexylphenoxy)-3-fluoro-N-hydroxybenzamide]: the activity at 20 µM in test [1] and in test [2] was 0 to 20% each time. Moreover, the activity at 40 µM in test [3] was 20 to 40%; in test [5], 0 to 20%. The activity at 10 µM in test [4] was 20 to 40%.
With `CCC(C)(C)c1ccc(Oc2ncc(C(=O)NO)cc2F)cc1` [Compound 633], the activity at 20 µM in test [1] and in test [2] was 0 to 20% throughout. For the same compound, the activity at 40 µM in test [5] was in the range of 20 to 40%.
In the case of `CCOC(=O)c1ccc(Oc2ccc(C3(C(F)(F)F)CC3)cc2Cl)cc1` [Compound 729, Ethyl 4-(2-chloro-4-(1-(trifluoromethyl)cyclopropyl)phenoxy)-benzoate], the activity at 20 µM in test [1] is 40 to 60%. Besides, the activity at 40 µM in test [2] and in test [3] was 20 to 40% each time.
`CCOC(=O)c1ccc(Oc2ccc(C3(C(F)(F)F)CC3)cc2)nc1` [Compound 748, ethyl 6-(4-(1-(trifluoromethyl)cyclopropyl)phenoxy)nicotinate]: the activity at 40 µM in test [3] lay within 70 to 80%.
Turning to `O=C(NO)c1ccc(Oc2ccc(C3(C(F)(F)F)CC3)cc2)c(F)c1` [Compound 768, 3-fluoro-N-hydroxy-4-(4-(1-(trifluoromethyl)cyclopropyl)phenoxy)benzamide], the activity at 20 µM in test [1] was 0 to 20%; in test [2] it was 20 to 40%. Moreover, the activity at 40 µM in test [2] was 20 to 40%; in test [3], 0 to 20%.
